Data published in PubChem BioAssay (NCI).
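Cultured in 96-well plates, cells were exposed to test compound for 48 hours across five concentrations. GI50 marks 50% less growth. Definition used: TGI = concentration required for complete inhibition of growth.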

Columns and labels:
Assay in all cases: NCI tumour cell line growth inhibition, 48 h
[1] = test system: NCI-H23 lung
[2] = test system: OVCAR-5 ovarian
[3] = test system: OVCAR-3 ovarian
[4] = test system: T-47D breast
[5] = test system: CCRF-CEM leukemia
[6] = test system: HL-60(TB) leukemia
[7] = test system: UACC-62 melanoma
[8] = test system: UO-31 renal
[9] = test system: DU-145 prostate
[10] = test system: HS 578T breast
[11] = test system: NCI-H226 lung
[12] = test system: SR leukemia
[13] = test system: 786-0 renal
[14] = test system: SF-268 CNS
[15] = test system: NCI-H460 lung
[16] = test system: OVCAR-8 ovarian
[17] = test system: SN12C renal
[18] = test system: RXF 393 renal
[19] = test system: MDA-MB-231 breast
[20] = test system: SF-539 CNS
[21] = test system: SK-MEL-2 melanoma
[22] = test system: LOX IMVI melanoma
[23] = test system: HT29 colon
[24] = test system: BT-549 breast
[25] = test system: SK-MEL-28 melanoma
[26] = test system: MALME-3M melanoma
[27] = test system: SF-295 CNS
[28] = test system: MDA-MB-468 breast
[29] = test system: EKVX NSCLC
[30] = test system: RPMI-8226 leukemia

Structure (SMILES): N#Cc1c(NC(=O)c2ccc(C(F)(F)F)cc2C(F)(F)F)sc2c1CCC(=O)C2
- GI50 [1]: 431 nM
- TGI [1]: 2280 nM
- GI50 [2]: 1040 nM
- TGI [2]: 2670 nM
- GI50 [3]: 360 nM
- TGI [3]: 1370 nM
- GI50 [4]: 358 nM
- TGI [4]: 2960 nM
- GI50 [5]: 308 nM
- TGI [5]: 3200 nM
- GI50 [6]: 235 nM
- TGI [6]: 3270 nM
- GI50 [7]: 501 nM
- TGI [7]: 1870 nM
- GI50 [8]: 339 nM
- TGI [8]: 1310 nM
- GI50 [9]: 3720 nM
- TGI [9]: 14900 nM
- GI50 [10]: 999 nM
- TGI [10]: 8550 nM
- GI50 [11]: 2240 nM
- TGI [11]: 6810 nM
- GI50 [12]: 303 nM
- TGI [12]: > 100000 nM
- GI50 [13]: 442 nM
- TGI [13]: 4080 nM
- GI50 [14]: 2820 nM
- TGI [14]: 13200 nM
- GI50 [15]: 3130 nM
- TGI [15]: 10900 nM
- GI50 [16]: 569 nM
- TGI [16]: 16500 nM
- GI50 [17]: 675 nM
- TGI [17]: 11100 nM
- GI50 [18]: 293 nM
- TGI [18]: 1270 nM
- GI50 [19]: 769 nM
- TGI [19]: 2390 nM
- GI50 [20]: 316 nM
- TGI [20]: 1150 nM
- GI50 [21]: 2230 nM
- TGI [21]: 4550 nM
- GI50 [22]: 369 nM
- TGI [22]: 2170 nM
- GI50 [23]: 542 nM
- TGI [23]: 2950 nM
- GI50 [24]: 309 nM
- TGI [24]: 1110 nM
- GI50 [25]: 613 nM
- TGI [25]: 1900 nM
- GI50 [26]: 369 nM
- TGI [26]: 1450 nM
- GI50 [27]: 1990 nM
- TGI [27]: 6400 nM
- GI50 [28]: 565 nM
- TGI [28]: 1820 nM
- GI50 [29]: 1650 nM
- TGI [29]: 7840 nM
- GI50 [30]: 209 nM
